Experimental data published in ChEMBL document CHEMBL4266026, “Bisleuconothines B-D, Modified Eburnane-Aspidosperma Bisindole Alkaloids from Leuconotis griffithii” (J Nat Prod, 2018).
pIC50: −log10 of the molar value.

What follows are compounds tested on A549 (assay: Cytotoxicity against human A549 cells assessed as cell growth inhibition by MTT assay).
Assay type: functional, cell-based

SMILES	pIC50
CC[C@]12C=C(c3ccc(O)c4c3N[C@@H]3CC[C@@]5(CC)CCCN6CC[C@@]43[C@H]65)N3c4ccccc4C(=O)[C@]34CCN(CCC1)[C@H]24	4.47
CC[C@@]12CCCN3CC[C@]4(c5c(ccc6c5O[C@@]57[C@@H]8N9CCC[C@]8(CC)C[C@@H]6N5c5ccccc5[C@]7(O)CC9)N(C=O)[C@@H]4CC1)[C@H]32	4.44
CC[C@@]12CCCN3CC[C@]4(c5c(O)ccc([C@H]6C[C@@]7(CC)CCCN8CC[C@]9(C(=O)c%10ccccc%10N69)[C@H]87)c5N[C@@H]4CC1)[C@H]32	4.70
